Laboratory results published in US7977364B2, “Indazoles, benzisoxazoles and benzisothiazoles and their use as estrogenic agents” (Laboratoire Thermamex, priority 2004, dated 2011).
Where two headings read alike, the source gives them in different places.

Legend:
[1] = system: human endometrial adenocarcinoma Ishikawa cells; experiment: Estrogenic and anti-estrogenic activities in vitro: induction of alkaline phosphatase (APase) activity; assay type: cell-based; conditions: for EC50: compound alone, four days, ND = not detected, read-out: Estrogenic activity EC50 (nM) ± S.E.M; for estrogenic effect in alkaline phosphatase activity in the Ishikawa cell model: in words
Procedure: The estrogenic and anti-estrogenic potentials of new compounds were evaluated using the induction of alkaline phosphatase (APase) activity, an estrogen specific response in human endometrial adenocarcinoma Ishikawa cells (Botella J., J Steroid Biochem Molec Biol, 1995, 55: 77-84; Littlefield et al., Endocrinology, 1990, 127: 2757-2762).
Ishikawa cells were routinely grown as monolayers in Dulbecco's Modified Eagle's medium (DMEM) containing 4 mM Glutamax I and supplemented with 10% of decomplemented fetal calf serum (dFCS) and antibiotics. They were maintained in a humidified atmosphere of 5% CO2 and 95% air, at 37±0.1° C. Stocks were performed once a week to maintain continuous exponential growth.
For studies, Ishikawa cells were plated into 96-well microplates. The next day, the medium was changed to a phenol red-free DMEM containing 5% dFCS stripped of endogenous estrogens by dextran coated charcoal treatment.
At the end of the incubation period, APase activity was assayed by a method involving the hydrolysis of p-nitrophenyl phosphate to p-nitrophenol at pH 9.8 and spectrophotometric determination of the product at 405 nm.
In brief, the microplates were first rinsed twice with cold phosphate buffered solution and then placed at −80° C. for at least 15 minutes. After thawing at room temperature for 5-10 minutes, the plates were put on ice and 50 μl ice-cold solution containing 5 mM p-nitrophenyl phosphate was added to each well. The plates were warmed to room temperature to allow for the development of the enzymatic reaction (t0). After a 15 to 60 minute incubation period, the intensity of the yellow color generated by the production of p-nitrophenol was measured into each well at 405 nm using a microplate reader (Wallac, model 1420 Victor^2). […] Sigmoidal dose-response curves were plotted and EC50 (estrogenic effect) and IC50 (anti-estrogenic effect) values were calculated for each compound.

[2] = system: human breast cancer cell line MCF-7; experiment: Proliferative activity in vitro (ATP luminescence, 6 days); assay type: cell-based; conditions: for EC50: MCF-7, six days, read-out: Cell proliferation EC50 (nM) ± S.E.M; for activity at 1 µM: read-out: Effect at 10^−6 M (% of control); for activity at 0.01 µM: read-out: Effect at 10^−8 M (% of control)
Procedure: The proliferative effect of the compounds of the invention was evaluated on human breast cancer cell line MCF-7 by measuring the number of viable cells after 6 days of treatment.
MCF-7 cells were routinely cultured as monolayers in Dulbecco's modified Eagle's medium (DMEM) containing 4 mM Glutamax and 4.5 g/l glucose and supplemented with 5% (v/v) decomplemented fetal calf serum (dFCS) and antibiotics.
Cells were plated at 2.10^6 cells/75 cm^2 flasks and incubated at 37° C. in a humidified atmosphere containing 5% CO2. They were passaged once weekly to maintain continuous exponential growth. Forty eight hours before the start of an experiment, near-confluent cells were changed to a phenol red free DMEM containing 5% steroid-stripped dFCS by dextran coated charcoal treatment (DCC-DMEM). On the day of the experiment, cells were harvested by brief exposure to trypsin and plated in DCC-DMEM in 96-well microplates at a density of 4.10^3 cells/well. The next day, the medium was renewed and test compounds, diluted appropriately in estrogen-free DMEM, were added and incubated for six days. […] At the end of the incubation period, cell proliferation was evaluated by quantitation of the cellular ATP content which signals the presence of metabolically active cells.
The assay, based on the ATP-dependent luciferase reaction, enables generation of a luminescent signal proportional to the amount of ATP present. As there is a linear relationship between the amount of ATP and the number of viable cells present in culture, the luminescent signal allowed to precisely evaluate cell proliferation (Crouch, S. P. M. et al. J. Immunol. Meth., 1993, 160, 81; Kangas, L. et al. Med. Biol. 1984, 62, 338; Petty, R. D. et al. J. Biolum. Chemilum. 1995, 10, 29).
In brief, the microplates were inverted to discard the culture medium and 100 μl of fresh medium was added into each well. The microplates were equilibrated at room temperature for approximately 30 minutes. 100 μl of luciferase reagent was added into each well and contents were mixed for 2 minutes to induce cell lysis. The plates were incubated at room temperature for 10 minutes to stabilize luminescence signal.
Luminescence was recorded using a microplate reader (Wallac, model 1420 Victor^2) and results were expressed as percentage of the control luminescence. Sigmoidal dose-response curves were plotted and EC50 values were calculated for each compound in order to evaluate their proliferative potency.

[3] = system: Prepubescent female rats; experiment: Estrogenic / uterotrophic activity in vivo (uterus wet weight); design: species or system rat; conditions: Table 4, orally 3 mg/rat/day for 3 days; for change in vivo at 3 mg: Rattus norvegicus, po, 72 h, read-out: % stimulation vs vehicle (uterus weight)
Procedure: Prepubescent female rats were orally treated at 3 mg/rat/day for 3 days. On the day following the last treatment, uteri were removed and wet weights were recorded.
The results are expressed as % of stimulation of uterus weight in comparison with vehicles. […]
Prepubescent female rats were orally treated with 0.3; 1; 3 or 10 mg/rat/day for 3 days. On the day following the last treatment, uteri were removed and wet weights were recorded.

[4] = target: T1, purified full-length recombinant human ERα (Homo sapiens, UniProt P03372); experiment: Estrogen receptor α competitive radiometric binding assay ([3H]-E2); conditions: for RBA (%) Mean ± S.E.M, ER α: ratio of IC50s of E2 and competitor, E2 set at 100%
T1 sequence (P03372 1-595): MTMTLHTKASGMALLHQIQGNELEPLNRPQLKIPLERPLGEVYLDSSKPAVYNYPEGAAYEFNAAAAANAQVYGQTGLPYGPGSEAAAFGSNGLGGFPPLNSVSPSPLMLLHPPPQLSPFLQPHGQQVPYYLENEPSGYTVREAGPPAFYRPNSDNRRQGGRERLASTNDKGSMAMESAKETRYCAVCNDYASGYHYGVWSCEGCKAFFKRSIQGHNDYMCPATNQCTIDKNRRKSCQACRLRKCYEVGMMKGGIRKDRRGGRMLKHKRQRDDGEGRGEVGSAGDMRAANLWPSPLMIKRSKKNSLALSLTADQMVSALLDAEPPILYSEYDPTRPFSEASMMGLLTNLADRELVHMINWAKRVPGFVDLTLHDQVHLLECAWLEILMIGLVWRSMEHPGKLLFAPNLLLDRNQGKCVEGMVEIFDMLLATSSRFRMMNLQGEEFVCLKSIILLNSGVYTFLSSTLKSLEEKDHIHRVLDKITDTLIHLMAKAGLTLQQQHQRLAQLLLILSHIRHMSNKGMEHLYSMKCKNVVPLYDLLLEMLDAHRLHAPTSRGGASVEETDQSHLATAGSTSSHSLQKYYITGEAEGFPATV
Procedure: (§1) Relative binding affinities (RBA) were determined by competitive radiometric binding assays, using purified full-length recombinant human ERα and ERβ (PanVera, Madison, Wis.). […] After shaking for a few seconds and centrifugation at 1500 g and 4° C. for 10 minutes, 150 μl/well of Optiphase ‘Super Mix’ scintillation liquid was mixed with 50 μl of supernatant of each sample and the radioactivity was measured in a MicroBeta counter (Wallac, Turku, Finland). Data were evaluated by a sigmoidal dose-response curve (Prism, GraphPad Software Inc.) to estimate the concentration of competitor at half-maximal specific binding (IC50). […] The selectivity for ERα and ERβ was obtained from the ratio R of the IC50 for ERα to the IC50 for ERβ for each test compound.

[5] = target: purified full-length recombinant human ERβ (Homo sapiens, UniProt Q92731); experiment: Estrogen receptor β competitive radiometric binding assay ([3H]-E2); conditions: for selectivity for the human recombinant estrogen receptor β: in words; for RBA (%) Mean ± S.E.M, ER β: ratio of IC50s of E2 and competitor, E2 set at 100%; for R (IC50s) αβ: ratio of the IC50 for ERα to the IC50 for ERβ
purified full-length recombinant human ERβ, sequence (Q92731 whole entry): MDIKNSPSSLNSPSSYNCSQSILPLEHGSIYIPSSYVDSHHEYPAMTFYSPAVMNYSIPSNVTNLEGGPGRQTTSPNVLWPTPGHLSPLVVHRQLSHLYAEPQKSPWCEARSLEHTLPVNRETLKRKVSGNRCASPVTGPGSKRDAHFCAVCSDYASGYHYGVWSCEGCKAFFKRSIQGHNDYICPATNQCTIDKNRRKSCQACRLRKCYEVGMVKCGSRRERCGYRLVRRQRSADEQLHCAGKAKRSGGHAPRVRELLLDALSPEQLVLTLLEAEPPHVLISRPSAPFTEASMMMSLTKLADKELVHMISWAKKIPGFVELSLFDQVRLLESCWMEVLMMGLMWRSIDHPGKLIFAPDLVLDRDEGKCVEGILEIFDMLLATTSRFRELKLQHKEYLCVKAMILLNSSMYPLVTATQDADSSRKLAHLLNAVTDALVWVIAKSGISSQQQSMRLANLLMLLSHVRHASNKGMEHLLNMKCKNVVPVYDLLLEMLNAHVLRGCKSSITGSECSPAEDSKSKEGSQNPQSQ
Procedure: as §1

[6] = Homo sapiens, MCF7, 144 h, MCF-7, 10^−6 M, six days
[7] = Homo sapiens, MCF7, 144 h, MCF-7, 10^−8 M, six days

Compound: Cl.Oc1ccc2c(C3CCCC3)nn(CCN3CCCCC3)c2c1
- melting point: 120 °C

Compound: Cl.Oc1ccc2c(C3CCCCCC3)n[nH]c2c1
- melting point: 95 °C

Compound: COc1ccc(C2=COc3cc(O)cc4[nH]nc2c34)cc1.Cl
- melting point: 255 °C

Compound: Cl.Oc1ccc(C2=COc3cc(O)cc4[nH]nc2c34)cc1
- melting point: 111 °C

Compound: 1-(aminosulfonyl)-3-cyclohexyl-1H-indazol-6-yl-sulfamate [Ex 35]
- EC50 [1]: 374 ± 43 nM
- estrogenic effect in alkaline phosphatase activity in the Ishikawa cell model [1]: weak estrogenic effect
- Effect at 10^−6 M (% of control) ([2]; MCF-7, 10^−6 M, six days): 162.6 % of control
- Effect at 10^−8 M (% of control) ([2]; MCF-7, 10^−8 M, six days): 94.4 % of control
- EC50 [2]: 58.2 ± 15 nM
- % stimulation vs vehicle (uterus weight) [3]: 38%
- RBA (%) Mean ± S.E.M, ER α [4]: 0.1 ± 0.02%
- IC50 ([4]; read-out: IC50 (nM) Mean ± S.E.M, ER α, 2 nM [3H]-E2, 4° C., 18-20 hours): 2690 ± 593 nM
- selectivity for the human recombinant estrogen receptor β [5]: marked selectivity
- RBA (%) Mean ± S.E.M, ER β [5]: 0.9 ± 0.1%
- R (IC50s) αβ [5]: 10.8
- IC50 ([5]; read-out: IC50 (nM) Mean ± S.E.M, ER β, 2 nM [3H]-E2, 4° C., 18-20 hours): 248 ± 48.7 nM

Compound: N#CC(Cc1ccc(O)cc1)c1ccc(O)cc1 (stereo not shown) [DPN, 2,3-bis-(4-hydroxyphenyl)propionitrile, reference compound]
- change in vivo at 3 mg [3]: 358%

Compound: Cl.Oc1ccc2c(C34CC5CC(CC(C5)C3)C4)n[nH]c2c1 [Ex 31, 3-(1-adamantyl)-1H-indazol-6-ol, hydrochloride]
- EC50 ([1]; Homo sapiens, Ishikawa, 96 h): 30.8 ± 0.5 nM
- estrogenic effect in alkaline phosphatase activity in the Ishikawa cell model [1]: weak estrogenic effect
- activity at 1 µM [2, 6]: 146%
- activity at 0.01 µM [2, 7]: 139%
- EC50 ([2]; Homo sapiens, MCF7, 144 h): 3.7 ± 0.7 nM
- change in vivo at 3 mg [3]: 468%
- IC50 [4]: 119 ± 45.2 nM
- RBA (%) Mean ± S.E.M, ER α [4]: 3.1 ± 0.8%
- IC50 [5]: 36.2 ± 18.7 nM
- selectivity for the human recombinant estrogen receptor β [5]: marked selectivity
- RBA (%) Mean ± S.E.M, ER β [5]: 17.7 ± 5.1%
- R (IC50s) αβ [5]: 3.3

Compound: N#CC(Cc1ccc(O)c(F)c1)c1noc2cc(O)ccc12 (stereo not shown) [Ex 81, 2-(6-hydroxy-1,2-benzisoxazol-3-yl)-3-(3-fluoro-4-hydroxyphenyl)-propanenitrile]
- activity at 1 µM [2, 6]: 117%
- activity at 0.01 µM [2, 7]: 86.8%
- EC50 ([2]; Homo sapiens, MCF7, 144 h): 635 ± 285 nM
- change in vivo at 3 mg [3]: 49%
- melting point: 201 °C
- IC50 [4]: 139 ± 33.9 nM
- RBA (%) Mean ± S.E.M, ER α [4]: 2.4 ± 0.7%
- IC50 [5]: 14.4 ± 5.3 nM
- RBA (%) Mean ± S.E.M, ER β [5]: 35.9 ± 14.0%
- R (IC50s) αβ [5]: 9.7

Compound: Cn1nc(C2CCCCC2)c2ccc(O)cc21 [Example 25, 3-cyclohexyl-1-methyl-1H-indazol-6-ol]
- melting point: 205 °C

Compound: Oc1ccc(-n2nc(C3CCCC3)c3ccc(O)cc32)cc1 [Example 26, 3-cyclopentyl-1-(4-hydroxyphenyl)-1H-indazol-6-ol]
- melting point: 178 °C

Compound: Oc1ccc2c(C3CCCC3)nn(Cc3ccc(Br)cc3)c2c1 [Example 28, 1-(4-bromobenzyl)-3-cyclopentyl-1H-indazol-6-ol]
- melting point: 147 °C

Compound: Oc1ccc2c(C3CCCCC3)nn(Cc3ccccc3)c2c1 [Example 29, 1-benzyl-3-cyclohexyl-1H-indazol-6-ol]
- melting point: 154 °C

Compound: Cn1nc(C2CCCCC2)c2ccc(S(N)(=O)=O)cc21 [Example 36, 3-cyclohexyl-1-methyl-1H-indazole-6-sulfonamide]
- melting point: 188 °C

Compound: NS(=O)(=O)n1nc(C2CCCCCC2)c2ccc(O)cc21 [Example 39, 3-cycloheptyl-6-hydroxy-1H-indazole-1-sulfonamide]
- melting point: 155 °C

Compound: c1ccc(COc2ccc3c(C4CCCCCC4)noc3c2)cc1 [Example 63, 6-benzyloxy-3-cycloheptyl-1,2-benzisoxazole]
- melting point: 80 °C

Compound: Oc1ccc2c(C34CC5CC(CC(C5)C3)C4)noc2c1 [Example 64, 3-(1-adamantyl)-1,2-benzisoxazol-6-ol]
- melting point: 215 °C

Compound: NS(=O)(=O)Oc1ccc2c(C34CC5CC(CC(C5)C3)C4)noc2c1 [Example 74, 3-(1-adamantyl)-1,2-benzisoxazol-6-yl sulfamate]
- melting point: 87 °C

Compound: NS(=O)(=O)Oc1ccc2c(C3CCCCCC3)noc2c1 [Example 75, 3-cycloheptyl-1,2-benzisoxazol-6-yl sulfamate]
- melting point: 82 °C

Compound: NS(=O)(=O)Oc1ccc2c(C3CCCCC3)noc2c1 [Example 76, 3-cyclohexyl-1,2-benzisoxazol-6-yl sulfamate]
- melting point: 145 °C

Compound: COc1ccc2c(C(C#N)Cc3ccc(O)cc3C)noc2c1 (stereo not shown) [Example 82, 2-(6-methoxy-1,2-benzisoxazol-3-yl)-3-(4-hydroxy-2-methylphenyl)-propanenitrile]
- melting point: 131 °C

Compound: Oc1ccc2c(C3CCCC3)nsc2c1 [Example 94, 3-cyclopentyl-1,2-benzisothiazol-6-ol]
- melting point: 130 °C

Compound: NS(=O)(=O)Oc1ccc2c(C3CCCC3)nsc2c1 [Example 96, 3-cyclopentyl-1,2-benzisothiazol-6-yl sulfamate]
- melting point: 132 °C

Compound: CCCc1c(-c2ccc(O)cc2)nn(-c2ccc(O)cc2)c1-c1ccc(O)cc1 [PPT, 1,3,5-tris-(4-hydroxyphenyl)-4-propyl-1H-pyrazole, reference compound]
- change in vivo at 3 mg [3]: 96%

Compound: CC/C(=C(\c1ccccc1)c1ccc(OCCN(C)C)cc1)c1ccccc1 [TAM, tamoxifen, reference compound]
- change in vivo at 3 mg [3]: 206%
